Experimental data as given in patent US20250092056A1, “URACIL DERIVATIVES HAVING VIRUS REPLICATION INHIBITORY ACTIVITY AND PHARMACEUTICAL COMPOSITION COMPRISING THE SAME” (Shionogi & Co., Ltd., priority 2022, published 2025).
pEC50, pIC50: −log10 of the molar value. Where two headings read alike, the source gives them in different places.

Experiments:
SARS-CoV-2 = assay: Cytopathic effect (CPE) suppression effect confirmation test using HEK293T/ACE2-TMPRSS2 cells; assay type: cell-based
[1] = molecular target: Recombinant SARS-CoV-2 3CL Protease (Severe acute respiratory syndrome coronavirus 2 (2019-nCoV) (SARS-CoV-2), UniProt P0DTD1); assay: biochemical; assay type: biochemical; settings: 50% SARS-CoV-2 3CL protease inhibitory concentration; read-out: IC50
[2] = Severe acute respiratory syndrome coronavirus 2, HEK-293T, 72 h, read-out: EC50 (50% SARS-CoV-2 infected cell death inhibitory concentration), class, HEK293T/ACE2-TMPRSS2 cells, CPE suppression, CellTiter-Glo 2.0 after 3 days culture
[3] = Severe acute respiratory syndrome coronavirus 2, HEK-293T, 50% SARS-CoV-2 infected cell death inhibitory concentration, HEK293T/ACE2-TMPRSS2 cells, read-out: EC50
[4] = Severe acute respiratory syndrome coronavirus 2, HEK-293T, 72 h, HEK293T/ACE2-TMPRSS2 cells, CPE suppression, CellTiter-Glo 2.0 after 3 days culture, read-out: EC50 (50% SARS-CoV-2 infected cell death inhibitory concentration), class
[5] = Severe acute respiratory syndrome coronavirus 2, HEK-293T, 72 h, read-out: EC50 (50% SARS-CoV-2 infected cell death inhibitory concentration), HEK293T/ACE2-TMPRSS2 cells, CPE suppression, CellTiter-Glo 2.0 after 3 days culture

## Cc1cncc(-n2c(=O)c(Cc3cc(F)c(F)c(F)c3)c(-c3ccc(C)c(C)c3)n(C(C)(C)C#N)c2=O)c1 [Compound I-065]
SARS-CoV-2; [2]
  pEC50: > 7.00
[1]
  pIC50: > 8.00

## Cc1cc(-n2c(=O)c(-c3cc(F)c(F)c(Cl)c3)c(N3CC4(CCOCC4)C3)n(CC#N)c2=O)cc(=O)[nH]1 [Compound I-032]
SARS-CoV-2; [2]
  pEC50: 6.00 to 7.00
[1]
  pIC50: > 8.00

## C[C@@](O)(CCc1c(-c2ccc(F)c(Cl)c2)c(=O)n(-c2cncc(Cl)c2)c(=O)n1CC#N)C(F)F (single isomer, unassigned) [Compound I-393]
SARS-CoV-2; [3]
  pEC50: > 7.00
[1]
  pIC50: > 8.00

## N#CCn1c(N2CCC3(CC2)CNC(=O)O3)c(-c2ccc(F)c(Cl)c2)c(=O)n(-c2cncc(Cl)c2)c1=O [Compound I-067]
SARS-CoV-2; [2]
  pEC50: 6.00 to 7.00
[1]
  pIC50: > 8.00

## N#CCn1c(N2CC(O)(C(F)(F)F)C2)c(-c2ccc(F)c(Cl)c2)c(=O)n(-c2cnc3cc(Cl)ccn23)c1=O [Compound I-135]
SARS-CoV-2; [4]
  pEC50: > 7.00
[1]
  pIC50: 7.00 to 8.00

## N#CCn1c(N2CC(C(F)(F)F)C2)c(-c2ccc(F)c(Cl)c2)c(=O)n(-c2cncc(Cl)c2)c1=O [Compound I-086]
SARS-CoV-2; [5]
  pEC50: 8.48
[1]
  pIC50: 9.15

## Cc1[nH]ncc1-n1c(=O)c(Cc2cc(F)c(F)c(F)c2)c(N2Cc3ccccc3C2)n(CC#N)c1=O [Compound I-164]
SARS-CoV-2; [2]
  pEC50: > 7.00
SARS-CoV-2; read-out: EC50 (50% SARS-CoV-2 infected cell death inhibitory concentration), class, HEK293T/ACE2-TMPRSS2 cells, CPE suppression, CellTiter-Glo 2.0 after 3 days culture
  pEC50: 6.00 to 7.00
[1]
  pIC50: < 7.00

## N#CCn1c(N2CC(OC(F)F)C2)c(-c2ccc(F)c(C(F)F)c2)c(=O)n(-c2cncc(C#N)c2)c1=O [Compound I-415]
SARS-CoV-2; [3]
  pEC50: > 7.00
[1]
  pIC50: > 8.00

## N#CCn1c(N2CC3(C2)CC(F)(F)C3)c(-c2ccc(F)c(Cl)c2)c(=O)n(CC#N)c1=O [Compound I-210]
SARS-CoV-2; [3]
  pEC50: 6.00 to 7.00
[1]
  pIC50: < 7.00

## N#CCn1c(N2CC3(CCOC3)C2)c(C2=CCCCC2)c(=O)n(-c2cncc(Cl)c2)c1=O [Compound I-264]
SARS-CoV-2; [3]
  pEC50: > 7.00
[1]
  pIC50: > 8.00

## Cc1cncc(-n2c(=O)c(Cc3cc(F)c(F)c(F)c3)c(-c3cccc(C#N)c3)n(CC#N)c2=O)c1 [Compound I-012]
SARS-CoV-2; [4]
  pEC50: > 7.00
[1]
  pIC50: 7.00 to 8.00

## Cc1cncc(-n2c(=O)c(-c3ccc(F)c(Cl)c3)c(-c3cc4ccccc4[nH]3)n(CC#N)c2=O)c1 [Compound I-026]
SARS-CoV-2; [2]
  pEC50: > 7.00
[1]
  pIC50: > 8.00

## N#CCn1c(N2CC3(CCOC3)C2)c(Cc2cc(F)c(F)c(F)c2)c(=O)n(-c2cnc3cnccn23)c1=O [Compound I-127]
SARS-CoV-2; [2]
  pEC50: 5.30 to 6.00
[1]
  pIC50: < 7.00

## N#CCn1c(C2CC(F)(C3CC3)C2)c(-c2ccc(F)c(Cl)c2)c(=O)n(-c2cncc(C(F)F)n2)c1=O (stereo not drawn) [Compound I-390]
SARS-CoV-2; [3]
  pEC50: > 7.00
[1]
  pIC50: > 8.00

## Cc1cncc(-n2c(=O)c(Cc3cc(F)c(F)c(F)c3)c(-c3ccc(C)c(C)c3)n(C3(C#N)CC3)c2=O)c1 [Compound I-049]
SARS-CoV-2; [4]
  pEC50: 6.00 to 7.00
[1]
  pIC50: 7.00 to 8.00

## N#CCn1c(CCC2CC(F)(F)C2)c(-c2ccc(F)c(Cl)c2)c(=O)n(-c2cncc(Cl)c2)c1=O [Compound I-391]
SARS-CoV-2; [3]
  pEC50: > 7.00
[1]
  pIC50: > 8.00

## N#CCn1c(N2CC[C@](O)(C(F)F)C2)c(-c2ccc(F)c(Cl)c2)c(=O)n(-c2cncc(Cl)c2)c1=O (single isomer, unassigned) [Compound I-239]
SARS-CoV-2; [5]
  pEC50: 8.50
[1]
  pIC50: 9.20

## COc1ccc(-c2c(-c3ccc(F)c(Cl)c3)c(=O)n(-c3cncc(Cl)c3)c(=O)n2CC#N)cn1 [Compound I-379]
SARS-CoV-2; [3]
  pEC50: > 7.00
[1]
  pIC50: > 8.00

## N#CCn1c(N2CC(OC(F)F)C2)c(-c2ccc(F)c(Cl)c2)c(=O)n(-c2cncc(C(F)F)n2)c1=O [Compound I-358]
SARS-CoV-2; [3]
  pEC50: > 7.00
[1]
  pIC50: > 8.00

## N#CCn1c(N2CC3(CCOC3)C2)c(Cc2cc(F)c(F)c(F)c2)c(=O)n(-c2nsc3ccccc23)c1=O [Compound I-143]
SARS-CoV-2; [2]
  pEC50: 5.30 to 6.00
[1]
  pIC50: < 7.00

## Cc1cncc(-n2c(=O)c(-c3ccc(F)c(Cl)c3)c(N3CC(C)(C)C3)n(CC#N)c2=O)n1 [Compound I-196]
SARS-CoV-2; [2]
  pEC50: > 7.00
[1]
  pIC50: > 8.00

## N#CCn1c(N2CCC3(CNC(=O)C3)C2)c(-c2ccc(F)c(Cl)c2)c(=O)n(-c2cnc3cc(Cl)ccn23)c1=O (racemic) [Compound I-051]
SARS-CoV-2; [4]
  pEC50: 5.30 to 6.00
[1]
  pIC50: 7.00 to 8.00

## C[C@@H](C#N)n1c(N2CC[C@@](O)(C(F)F)C2)c(-c2ccc(F)c(C(F)F)c2)c(=O)n(-c2cncc(Cl)c2)c1=O (single isomer, unassigned) [Compound I-428]
SARS-CoV-2; [3]
  pEC50: > 7.00
[1]
  pIC50: > 8.00

## N#CCn1c(N2CC[C@](O)(c3ccccc3)C2)c(-c2ccc(F)c(Cl)c2)c(=O)n(-c2cncc(Cl)c2)c1=O (single isomer, unassigned) [Compound I-241]
SARS-CoV-2; [3]
  pEC50: > 7.00
[1]
  pIC50: > 8.00

## N#CCc1cncc(-n2c(=O)c(-c3ccc(F)c(Cl)c3)c(N3CC4(C3)CC(F)(F)C4)n(CC#N)c2=O)n1 [Compound I-209]
SARS-CoV-2; [3]
  pEC50: > 7.00
[1]
  pIC50: > 8.00

## N#CCn1c(N2CC(C(F)(F)F)C2)c(-c2ccc(F)c(Cl)c2)c(=O)n(-c2cnc3cc(Cl)ccn23)c1=O [Compound I-139]
SARS-CoV-2; [4]
  pEC50: > 7.00
[1]
  pIC50: 7.00 to 8.00

## Cc1cnnc(-n2c(=O)c(Cc3cc(F)c(F)c(F)c3)c(N3Cc4ccccc4C3)n(CC#N)c2=O)c1 [Compound I-039]
SARS-CoV-2; [2]
  pEC50: > 7.00
[1]
  pIC50: > 8.00

## Cc1cncc(-n2c(=O)c(Cc3cc(F)c(F)c(F)c3)c(N3CCN(C)C(=O)C3)n(CC#N)c2=O)c1 [Compound I-098]
SARS-CoV-2; [2]
  pEC50: > 7.00
[1]
  pIC50: > 8.00

## Cc1cc(-n2c(=O)c(-c3ccc(F)c(Cl)c3)c(-c3ccc(C(F)F)cc3)n(CC#N)c2=O)cc(=O)[nH]1 [Compound I-220]
SARS-CoV-2; [3]
  pEC50: 6.00 to 7.00
[1]
  pIC50: > 8.00

## CCCCc1c(N2CC3(CCOC3)C2)n(CC#N)c(=O)n(-c2cncc(Cl)c2)c1=O [Compound I-284]
SARS-CoV-2; [3]
  pEC50: > 7.00
[1]
  pIC50: 7.00 to 8.00

## N#CCn1c(N2CC3(C2)CC(F)(F)C3)c(-c2ccc(F)c(Cl)c2)c(=O)n(-c2cncc(C#N)n2)c1=O [Compound I-206]
SARS-CoV-2; [3]
  pEC50: > 7.00
[1]
  pIC50: > 8.00

## N#CCn1c(N2CC(OC(F)F)C2)c(-c2ccc(F)c(C(F)F)c2)c(=O)n(-c2cncc(Cl)c2)c1=O [Compound I-342]
SARS-CoV-2; [3]
  pEC50: > 7.00
[1]
  pIC50: > 8.00

## N#CCn1c(N2CC3(CCOC3)C2)c(C2=CCCCCC2)c(=O)n(-c2cncc(Cl)c2)c1=O [Compound I-227]
SARS-CoV-2; [3]
  pEC50: > 7.00
[1]
  pIC50: > 8.00

## N#CCn1c(N2CC(O)(C(F)(F)F)C2)c(-c2ccc(F)c(Cl)c2)c(=O)n(-c2cnc3cc(F)ccn23)c1=O [Compound I-136]
SARS-CoV-2; [2]
  pEC50: > 7.00
[1]
  pIC50: > 8.00

## Cc1cncc(-n2c(=O)c(-c3ccc(F)c(Cl)c3)c(N3CC4(CCCO4)C3)n(CC#N)c2=O)n1 [Compound I-195]
SARS-CoV-2; [2]
  pEC50: > 7.00
[1]
  pIC50: > 8.00

## N#CCn1c(N2Cc3cn[nH]c3C2)c(Cc2cc(F)c(F)c(F)c2)c(=O)n(-c2cncc(Cl)c2)c1=O [Compound I-064]
SARS-CoV-2; [2]
  pEC50: > 7.00
[1]
  pIC50: > 8.00

## N#CCn1c(N2CC3(C=C(F)C3)C2)c(-c2ccc(F)c(Cl)c2)c(=O)n(-c2cncc(Cl)c2)c1=O [Compound I-362]
SARS-CoV-2; [3]
  pEC50: > 7.00
[1]
  pIC50: > 8.00

## Cc1cncc(-n2c(=O)c(-c3ccc(F)c(Cl)c3)c(-c3cc4ccccc4s3)n(CC#N)c2=O)c1 [Compound I-020]
SARS-CoV-2; [2]
  pEC50: > 7.00
[1]
  pIC50: > 8.00

## Cc1cncc(-n2c(=O)c(Oc3cc(F)c(F)c(F)c3)c(-c3cc4ccccc4s3)n(CC#N)c2=O)c1 [Compound I-018]
SARS-CoV-2; [2]
  pEC50: > 7.00
[1]
  pIC50: > 8.00

## Cc1cncc(-n2c(=O)c(-c3ccc(F)c(Cl)c3)c(N3CCC(F)(F)CC3)n(CC#N)c2=O)n1 [Compound I-197]
SARS-CoV-2; [2]
  pEC50: > 7.00
[1]
  pIC50: > 8.00
